Assay results: the supplement of paper PMC6723410

Tested on: GUMC-403
Experiment: viability at highest tested concentration (max response) relative to DMSO (% of DMSO control); higher = less cytotoxic
Settings: library / dose series: MIPE library, 11-point 1:3 dilution, 48 h
Method in brief: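 In 1536-well plates, 700 GUMC-403 papilloma cells per well, taken from a patient and grown by conditional reprogramming, were seeded in 5 μL F + Y medium and incubated overnight at 37 °C. Compounds were pinned in at 23 nL in an 11-point 1:3 series, and left for 48 h before CellTiter-Glo luminescence was read on a ViewLux against vehicle (100%) and empty (0%) wells. Reported values are viability at the highest tested concentration relative to vehicle control.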

Row | Structure (SMILES) | viability (top concentration 46.1 µM) | further results
1 | CNC(=O)N1\N=C(\C2=CC=C(N)C=C2)C3=CC4=C(OCO4)C=C3CC1C (stereo not given) | 107 | 
2 | CN(C)CCOc1cc(-c2cn[nH]c2)ccc1NC(=O)C1COc2ccccc2O1 (stereo not given) | 117 | 
3 | Cc1cnc(Nc2cccc(CN3CCOCC3)c2)nc1Nc1cccc([S+](=O)([O-])NC(C)(C)C)c1 | 101 | 
4 | CN(C)C(=O)[C@H](O)[C@H](Cc1ccccc1)NC(=O)c1cc2cc(Cl)ccc2[nH]1 | 114 | 
5 | S=C(NCc1ccc2c(c1)OCO2)N1CCN(c2ncnc3c2oc2ccccc23)CC1 |  | viability (top concentration 92.2 µM): 100
6 | OC[C@H]1OC(O)C[C@@H](O)[C@@H]1O (stereo not given in full) | 126 | 
7 | CC1=CC2=C(O1)C(=C3OC(=O)\C=C(C)/C3=C2)C | 111 | 
8 | CC1SC/2=C(C(O)=O)/C(=O)C3=CC(=C(C=C3N12)N4CCN(CC4)C\C5=C(C)\OC(=O)O5)F (stereo not given) | 112 | 
9 | Cc1cc(Nc2nc(N[C@@H](C)c3ccc(F)cc3)c(C#N)cc2F)n[nH]1 | 65.1 | 
10 | CO[C@@]12[C@H](COC(N)=O)C/3=C(N1C[C@@H]4N[C@H]24)/C(=O)/C(=C(N)\C3=O)C | 77 | 
11 | NC(=O)c1nnn(Cc2cc(Cl)c(C(=O)c3ccc(Cl)cc3)c(Cl)c2)c1N | 90.7 | 
12 | NC/1=N/C(=O)C2=C(N1)[N](C=N2)[C@@H]3C[C@H](O)[C@@H](CO)C3=C | 100 | 
13 | COc1ccc2cc(-c3[nH]c(-c4ccc([S+](C)[O-])cc4)nc3-c3ccncc3)ccc2c1 (stereo not given) | 144 | 
14 | CCn1c(-c2nonc2N)nc2cnc(Oc3cccc(NC(=O)c4ccc(OCCN5CCOCC5)cc4)c3)cc21 | 65.4 | 
15 | O=C(c1ccc(F)c(F)c1Nc1ccc(I)cc1F)N1CC(O)([C@@H]2CCCCN2)C1 | 52.2 | 
16 | CC1(C)O[C@H]2CC(=O)OC[C@]23[C@H]2CC[C@@]4(C)[C@H](c5ccoc5)OC(=O)[C@H]5O[C@]54[C@]2(C)C(=O)C[C@@H]13 | 139 | 
17 | COC1=CC(=CC=C1)C2=CC=C(NC(=O)/C3=C(/CCC3)C(O)=O)C(=C2)F | 99.8 | 
18 | CCOC(=O)[C@@H](N)CCC(=O)N[C@@H](CSCc1ccccc1)C(=O)N[C@@H](C(=O)OCC)c1ccccc1 | 95.5 | 
19 | C=CC(=O)Nc1cc2c(Nc3ccc(F)c(Cl)c3)ncnc2cc1OCCCN1CCOCC1 | 81.6 | 
20 | Cc1cc2c(cc1C1(c3ccc(C(=O)O)cn3)CC1)C(C)(C)CCC2(C)C | 129 | 
21 | COc1cc2ncn(-c3cc(OCc4ccccc4[S+](C)(=O)[O-])c(C#N)s3)c2cc1OC | 81.5 | 
22 | NC/1=N/C(=O)C2=C([NH]C=C2CCC3=CC=C(C=C3)C(=O)N[C@@H](CCC(O)=O)C(O)=O)N1 | 119 | 
23 | OCCN1C[C@H](O)[C@@H](O)[C@H](O)[C@H]1CO | 151 | 
24 | CNC(=O)c1cc(Oc2ccc(NC(=O)Nc3ccc(Cl)c(C(F)(F)F)c3)cc2)ccn1 | 87 | 

Row | Structure (SMILES) | viability (top concentration 46.1 µM) | further results
25 | Oc1ccc(/C=C/c2cc(O)cc(O)c2)cc1 | 96.3 | 
26 | COc1cc(O)c2c(c1)C1OC1C[C@H](O)[C@H](O)C(=O)/C=C\C[C@H](C)OC2=O (stereo not given in full) | 107 | 
27 | CCc1cc(C(N)=S)ccn1 | 120 | 
28 | CCCOc1ccc(C(=O)OCCN(CC)CC)cc1N | 115 | 
29 | C#Cc1cccc(Nc2ncnc3cc(OCCOC)c(OCCO)cc23)c1 | 47.5 | 
30 | Cc1ccc(C(=O)Nc2ccc([S+](=O)([O-])O)c3cc([S+](=O)([O-])O)cc([S+](=O)([O-])O)c23)cc1NC(=O)c1cccc(NC(=O)Nc2cccc(C(=O)Nc3cc(C(=O)Nc4ccc([S+](=O)([O-])O)c5cc([S+](=O)([O-])O)cc([S+](=O)([O-])O)c45)ccc3C)c2)c1 | 123 | 
31 | C[S+](=O)([O-])c1cc(F)cc2c3c(n(Cc4ccc(Cl)cc4)c12)[C@@H](CC(=O)O)CC3 | 128 | 
32 | CNC(=O)c1c(F)cccc1Nc1nc(Nc2cc3c(cc2OC)CCN3C(=O)CN(C)C)nc2[nH]ccc12 | 84.8 | 
33 | CCOc1ccc(Cc2cc([C@@H]3O[C@H](CO)[C@@H](O)[C@H](O)[C@H]3O)ccc2Cl)cc1 | 130 | 
34 | C[C@H](CCC(=O)O)[C@H]1CC[C@H]2[C@@H]3[C@@H](O)C[C@@H]4C[C@H](O)CC[C@]4(C)[C@H]3CC[C@]12C | 84.8 | 
35 | C1CCN2C[C@H]3C[C@H](\C=C/4CCCN[C@@H]34)[C@H]2C1 | 120 | 
36 | CN1CCN(CC1)C/2=N/C3=CC=CC=C3NC4=C2C=C(C)S4 | 117 | 
37 | CN[C@H](CC(C)C)C(=O)N[C@H]1C(=O)N[C@@H](CC(N)=O)C(=O)N[C@H]2C(=O)N[C@H]3C(=O)N[C@H](C(=O)N[C@H](C(=O)O)c4cc(O)cc(O)c4-c4cc3ccc4O)[C@H](O)c3ccc(c(Cl)c3)Oc3cc2cc(c3O[C@@H]2O[C@H](CO)[C@@H](O)[C@H](O)[C@H]2O[C@H]2C[C@](C)(N)[C@H](O)[C@H](C)O2)Oc2ccc(cc2Cl)[C@H]1O | 119 | 
38 | OC[C@H]1O[C@H](C[C@@H]1O)N2\C=C(\I)C(=O)NC2=O | 127 | 
39 | Cc1ccc(C(C)(O)c2nc3ccccc3s2)c(C)c1 (stereo not given) | 115 | 
40 | Cc1c(O)cccc1C(=O)N[C@@H](CSc1ccccc1)[C@H](O)CN1C[C@H]2CCCC[C@H]2C[C@H]1C(=O)NC(C)(C)C | 126 | 
41 | FC1=CC=C(C=C1)N2/C=C\C=C(C(=O)NC3=CC=C(OC4=C5C=C[NH]C5=NC=C4)C(=C3)F)/C2=O | 98.8 | 
42 | COC(=O)[C@@H]1CC2=CC(=O)CC[C@]2(C)[C@@]23O[C@@H]2C[C@@]2(C)[C@@H](CC[C@@]24CCC(=O)O4)[C@H]13 | 128 | 
43 | C[C@]12CC[C@H]3[C@@H](CC[C@H]4NC(=O)\C=C/[C@]34C)[C@@H]1CC[C@@H]2C(=O)NC5=CC(=CC=C5C(F)(F)F)C(F)(F)F | 96.3 | 
44 | CCOC(=O)N1CCN(/[N+]([O-])=N/Oc2cc(O/N=[N+](\[O-])N3CCN(C(=O)OCC)CC3)c([N+](=O)[O-])cc2[N+](=O)[O-])CC1 | 118 | 
45 | C[C@H]1[C@@H](C(=O)C[C@H]2O[C@@H]3O[C@]4(C)CC[C@H]5[C@H](C)CC[C@@H]([C@H]2C)[C@@]35OO4)O[C@@H]2O[C@]3(C)CC[C@H]4[C@H](C)CC[C@@H]1[C@@]24OO3 | 121 | 
46 | OC(CN1CCC(Cc2ccc(F)cc2)CC1)c1ccc(Cl)cc1 (stereo not given) | 103 | 
47 | CN1C(=O)C(=C/2N(C(=O)N(C3CC3)C(=O)C2=C1/NC4=CC=C(I)C=C4F)C5=CC=CC(=C5)NC(C)=O)\C | 87.7 | 
48 | CO[C@H]1CCC(O[C@H]2C[C@H]([C@]3(C)CC[C@]4(C[C@H](O)[C@@H](C)[C@@H]([C@@H](C)/C=C(\C)C(=O)[C@H](C)C[C@H](C)C(=O)[O-])O4)O3)O[C@]3(O[C@@H]([C@H]4O[C@@](O)(CO)[C@H](C)C[C@@H]4C)C[C@@H]3C)[C@@H]2C)O[C@@H]1C (stereo not given in full) | 104 | 

Row | Structure (SMILES) | viability (top concentration 46.1 µM) | further results
49 | CN[C@@H]1CN(C[C@H]1OC)C2=NC3=C(C=C2)C(=O)C(=C\N3C4=NC=CS4)/C(O)=O |  | viability (top concentration 23 µM): 94.4
50 | CC1(C)[C@@H](O[C@H]2O[C@H](C(=O)O)[C@@H](O)[C@H](O)[C@H]2O[C@@H]2O[C@H](C(=O)O)[C@@H](O)[C@H](O)[C@H]2O)CC[C@]2(C)[C@H]3C(=O)C=C4[C@@H]5C[C@@](C)(C(=O)O)CC[C@]5(C)CC[C@@]4(C)[C@]3(C)CC[C@@H]12 | 115 | 
51 | CN1C(=O)\C(=C/C(=C1/NC2=C(F)C=C(I)C=C2)C(=O)NOCCO)C | 80.2 | 
52 | CC(C)C(=O)Nc1ccc([N+](=O)[O-])c(C(F)(F)F)c1 | 85.7 | 
53 | COC1=CC=C(C=C1)/C2=C(O)/C(=O)C3=C(O)C=C(O)C(=C3O2)CC=C(C)C | 138 | 
54 | Cc1c(C(=O)NN2CCCCC2)nn(-c2ccc(Cl)cc2Cl)c1-c1ccc(Cl)cc1 | 109 | 
55 | O=C(Cc1ccc(-c2ccc(OCCN3CCOCC3)cc2)cn1)NCc1ccccc1 | 104 | 
56 | N#CCNC(=O)c1ccc(-c2ccnc(Nc3ccc(N4CCOCC4)cc3)n2)cc1 | 9.51 | 
57 | C[N]1C=C(C2=C1C=CC=C2)\C3=C(\C(=O)NC3=O)C4=C5CC(CN)CC[N]5C6=C4C=CC=C6 (stereo not given) | 42.9 | 
58 | O=C(O)CCNC(=O)c1ccc(/N=N/c2ccc(O)c(C(=O)O)c2)cc1 | 107 | 
59 | C[C@]12CC[C@@H]3c4ccc(O)cc4C[C@@H](CCCCCCCCC[S+]([O-])CCCC(F)(F)C(F)(F)F)[C@H]3[C@@H]1CC[C@@H]2O (stereo not given in full) | 114 | 
60 | COc1cc(F)c(F)c(Nc2ccc(I)cc2F)c1N[S+](=O)([O-])C1(C[C@H](O)CO)CC1 | 101 | 
61 | Cc1[nH]c(/C=C2\C(=O)Nc3ccc([S+](=O)([O-])N(C)c4cccc(Cl)c4)cc32)c(C)c1C(=O)N1CCN(C)CC1 | 138 | 
62 | O=c1[nH]cnc2c1ncn2[C@H]1CC[C@@H](CO)O1 | 144 | 
63 | C[S+](=O)([O-])c1ccc([C@@H](O)[C@@H](CO)NC(=O)C(Cl)Cl)cc1 | 126 | 
64 | CCNC(=O)CCC/C=C\C[C@@H]1[C@@H](/C=C/C(O)CCc2ccccc2)[C@@H](O)C[C@@H]1O (stereo not given in full) | 109 | 
65 | O=C(/C=C/c1cccc([S+](=O)([O-])Nc2ccccc2)c1)NO |  | viability (top concentration 92.2 µM): 87.7
66 | C/C=C(/C)C(=O)O[C@H]1C(C)=C[C@]23C(=O)[C@@H](C=C(CO)[C@@H](O)[C@]12O)[C@H]1[C@@H](C[C@H]3C)C1(C)C | 106 | 
67 | Cn1cc(C[C@@H](N)C(=O)O)c2ccccc21 |  | viability (top concentration 23 µM): 111
68 | CCOC(=O)\C1=C\[C@]2(CC)CCCN3CCC4=C([C@H]23)[N]1C5=C4C=CC=C5 | 83.9 | 
69 | COC1=CC2=NC=CC(=C2C=C1)OC3=CN=C(NC(=O)C/4=C(C)/N(CC(C)(C)O)N(C4=O)C5=CC=CC=C5)C=C3 | 84.6 | 
70 | CCCCc1ccc(N[S+](=O)([O-])c2ccc(C)c(C(=O)N3CCN(c4cccc(C)c4C)CC3)c2)cc1 | 111 | 
